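Five concentrations, 48 hours, 96-well plates. GI50 is the concentration that inhibits growth by half.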 Calls of active or inactive are those of the source. No stated cut-off is given here; in the data, active = GI50 up to about 1.1 µM and inactive = higher.
What was measured:
Experiment in all cases: inhibition of tumour cell growth, NCI panel, 48 h
SK-MEL-28 = test system: SK-MEL-28
SK-MEL-2 = test system: SK-MEL-2
CCRF-CEM = test system: CCRF-CEM
HT-29 = test system: HT-29
RXF 393 = test system: RXF 393
SF-295 = test system: SF-295
K562 = test system: K562
SNB-75 = test system: SNB-75
EKVX = test system: EKVX
HL-60 = test system: HL-60
IGROV-1 = test system: IGROV-1
UO-31 = test system: UO-31
CAKI-1 = test system: CAKI-1
LOX IMVI = test system: LOX IMVI
UACC-62 = test system: UACC-62
SK-MEL-5 = test system: SK-MEL-5
OVCAR-3 = test system: OVCAR-3
OVCAR-5 = test system: OVCAR-5
SF-539 = test system: SF-539

Structure (SMILES) | GI50 (SK-MEL-28) | GI50 (SK-MEL-2) | GI50 (CCRF-CEM) | GI50 (HT-29) | GI50 (RXF 393) | GI50 (SF-295) | GI50 (K562) | GI50 (SNB-75) | GI50 (EKVX) | GI50 (HL-60) | GI50 (IGROV-1) | GI50 (UO-31) | GI50 (CAKI-1) | GI50 (LOX IMVI) | GI50 (UACC-62) | GI50 (SK-MEL-5) | GI50 (OVCAR-3) | GI50 (OVCAR-5) | GI50 (SF-539)
C[C@H](O)C(=O)SC[C@H](NC(=O)CC[C@@H](N)C(=O)O)C(=O)NCC(=O)O | > 100 µM (inactive) | > 100 µM (inactive) | > 100 µM (inactive) | > 100 µM (inactive) | > 100 µM (inactive) | > 100 µM (inactive) | > 100 µM (inactive) | 14.5 µM (inactive) | > 100 µM (inactive) | > 10 µM (inactive) | > 100 µM (inactive) | > 100 µM (inactive) | > 100 µM (inactive) | > 100 µM (inactive) | > 100 µM (inactive) | > 100 µM (inactive) | > 100 µM (inactive) | > 100 µM (inactive) | 
C/C=C/C1=CC(=O)C(O)C1O (stereo unspecified) | 30.9 µM (inactive) | 36.5 µM (inactive) | 22.7 µM (inactive) | 29.6 µM (inactive) | 15.1 µM (inactive) | 44.7 µM (inactive) | 30.6 µM (inactive) | 23.6 µM (inactive) | 44.6 µM (inactive) | 15.1 µM (inactive) | 35.6 µM (inactive) | 32.2 µM (inactive) | 14.5 µM (inactive) | 16.5 µM (inactive) | 26.6 µM (inactive) | 28.4 µM (inactive) | 24.5 µM (inactive) | 39.7 µM (inactive) | 23.9 µM (inactive)
Cc1cccc(C(C)C)c1NC(=O)/C(Cc1c([N+](=O)[O-])cccc1[N+](=O)[O-])=N/NC(=O)CC#N | > 100 µM (inactive) | > 100 µM (inactive) | > 100 µM (inactive) | > 100 µM (inactive) | > 100 µM (inactive) | > 100 µM (inactive) | > 100 µM (inactive) | > 100 µM (inactive) | 7.05 µM (inactive) | > 100 µM (inactive) | > 100 µM (inactive) | > 100 µM (inactive) | > 100 µM (inactive) | > 100 µM (inactive) | > 100 µM (inactive) | > 100 µM (inactive) | > 100 µM (inactive) | > 100 µM (inactive) | > 100 µM (inactive)
CCCCCCCSc1nc2c(C(=O)OCC)ncn2c2ccccc12 | > 100 µM (inactive) | > 100 µM (inactive) | > 100 µM (inactive) | > 100 µM (inactive) | > 100 µM (inactive) | 91.8 µM (inactive) | > 100 µM (inactive) |  | > 100 µM (inactive) | > 100 µM (inactive) | > 100 µM (inactive) | > 100 µM (inactive) |  | > 100 µM (inactive) | > 100 µM (inactive) |  | > 100 µM (inactive) | > 100 µM (inactive) | 
O=C(Nc1c(C(=O)NC2CCCCC2)[nH]c(=O)[nH]c1=O)c1ccc(Cl)cc1 | > 100 µM (inactive) |  | > 100 µM (inactive) | > 100 µM (inactive) | 79.6 µM (inactive) | > 100 µM (inactive) | > 100 µM (inactive) | 22 µM (inactive) | > 100 µM (inactive) | > 100 µM (inactive) | > 100 µM (inactive) | > 100 µM (inactive) | > 100 µM (inactive) | > 100 µM (inactive) | > 100 µM (inactive) | > 100 µM (inactive) | > 100 µM (inactive) | > 100 µM (inactive) | > 100 µM (inactive)
N#C/C(=C1/Sc2c(nc[nH]c2=O)N1c1ccccc1)c1nc2ccccc2[nH]1 | > 100 µM (inactive) | > 100 µM (inactive) | > 100 µM (inactive) | > 100 µM (inactive) |  | > 100 µM (inactive) | > 100 µM (inactive) | 26 µM (inactive) | > 100 µM (inactive) | > 100 µM (inactive) | > 100 µM (inactive) | > 100 µM (inactive) | > 100 µM (inactive) |  | > 100 µM (inactive) | > 100 µM (inactive) | > 100 µM (inactive) | > 100 µM (inactive) | > 100 µM (inactive)
Cc1csc(/N=C(/NCCN2CCOCC2)Nc2nc(C)cs2)n1 | > 100 µM (inactive) | > 100 µM (inactive) | > 100 µM (inactive) | > 100 µM (inactive) | > 100 µM (inactive) | > 80.2 µM (inactive) | > 100 µM (inactive) | > 63.2 µM (inactive) | > 87.9 µM (inactive) | 60.7 µM (inactive) | > 100 µM (inactive) | > 100 µM (inactive) | > 76.2 µM (inactive) | > 100 µM (inactive) | > 100 µM (inactive) | > 100 µM (inactive) | > 100 µM (inactive) | > 100 µM (inactive) | > 100 µM (inactive)
c1ccc2c(c1)CCCC/C2=N/OCC1CO1 (stereo unspecified) | 61 µM (inactive) | > 100 µM (inactive) | 46.5 µM (inactive) | 42.1 µM (inactive) | 53.6 µM (inactive) | 58.7 µM (inactive) | 41.2 µM (inactive) | 54.5 µM (inactive) | 56.9 µM (inactive) | 21.4 µM (inactive) | 50.8 µM (inactive) | < 0.01 µM (active) |  | 32.9 µM (inactive) |  | 35.5 µM (inactive) |  |  | > 100 µM (inactive)
COC(=O)C(C/C=C(\C)c1ccc(Cl)cc1)C(C)=O (stereo unspecified) | 61.5 µM (inactive) | 5.53 µM (inactive) | 30.1 µM (inactive) | 32.3 µM (inactive) | 26.7 µM (inactive) | 39.9 µM (inactive) | 36.4 µM (inactive) | 29.2 µM (inactive) | 54.5 µM (inactive) | 14.6 µM (inactive) | 53.6 µM (inactive) | 22.9 µM (inactive) |  | 14.9 µM (inactive) | 38.5 µM (inactive) | 21.3 µM (inactive) | 32.4 µM (inactive) | 16.4 µM (inactive) | 99.5 µM (inactive)
CCO[C@]12C[C@H](OC)[C@@]3(O)CC(C1[C@H]3O)C13C4C2[C@H](OC)C1[C@](COC)(CN4CC)[C@H](O)C[C@@H]3OC (stereo partly specified) | > 100 µM (inactive) |  | > 100 µM (inactive) | > 100 µM (inactive) | > 100 µM (inactive) |  | > 100 µM (inactive) | > 10 µM (inactive) | > 100 µM (inactive) | > 100 µM (inactive) | > 100 µM (inactive) | > 100 µM (inactive) |  | > 100 µM (inactive) | > 100 µM (inactive) | > 100 µM (inactive) |  | > 100 µM (inactive) | > 100 µM (inactive)
C=CC(C)C1(CCCOCc2ccccc2)C(=S)N2CCC3(CC24CCCC14)OCCO3 (stereo unspecified) | 14.3 µM (inactive) | 12.2 µM (inactive) | 6.41 µM (inactive) | 21.9 µM (inactive) | 6.46 µM (inactive) | 53.2 µM (inactive) | 4.84 µM (inactive) | 0.0506 µM (active) | > 100 µM (inactive) | 1.9 µM (inactive) | > 100 µM (inactive) | 28.8 µM (inactive) | > 100 µM (inactive) | 54.3 µM (inactive) | > 100 µM (inactive) | 5.61 µM (inactive) | 6.76 µM (inactive) | > 100 µM (inactive) | 
